Measured values from US20230265151A1, “GIP/GLP1 CO-AGONIST COMPOUNDS” (priority 2020, published 2023).
Where two headings read alike, the source gives them in different places.

Assays:
[1] = molecular target: T1, human Gcg receptor (hGcgR) (Homo sapiens, UniProt P47871); test: [125I]-Glucagon binding, SPA with membranes of HEK293 cells expressing hGcgR
T1 construct: expressed in transfected cells; crude membranes

[2] = molecular target: T2, human GLP-1 receptor (hGLP-1R) (Homo sapiens, UniProt P43220); test: [125I]-GLP-1 binding, SPA with membranes of HEK293 cells expressing hGLP-1R
T2 construct: expressed in transfected cells; crude membranes

hGIPR = molecular target: T3, hGIPR (Homo sapiens, UniProt P48546); test: Functional cAMP formation (HTRF) in HEK-293 clonal cells expressing hGIPR, 0.1% bovine casein, without or with 1.0% human serum albumin; type: cell-based; conditions: for EC50: geometric mean
T3 construct: expressed in transfected cells
T3 sequence (P48546 22-466): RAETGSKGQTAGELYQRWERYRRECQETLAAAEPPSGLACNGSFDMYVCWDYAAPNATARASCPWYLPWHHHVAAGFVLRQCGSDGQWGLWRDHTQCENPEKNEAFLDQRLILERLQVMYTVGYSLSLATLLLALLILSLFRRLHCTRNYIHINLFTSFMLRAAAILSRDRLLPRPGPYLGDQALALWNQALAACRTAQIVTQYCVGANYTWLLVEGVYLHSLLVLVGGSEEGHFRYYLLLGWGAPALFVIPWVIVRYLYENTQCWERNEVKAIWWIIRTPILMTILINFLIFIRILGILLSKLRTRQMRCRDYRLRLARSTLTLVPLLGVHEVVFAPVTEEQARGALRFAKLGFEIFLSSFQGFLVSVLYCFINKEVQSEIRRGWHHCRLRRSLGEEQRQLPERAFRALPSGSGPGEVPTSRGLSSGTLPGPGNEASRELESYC
Summary of the method: (§1)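 Readings of the HTRF 665/620 nm ratio, which falls as cAMP rises, were converted to nM cAMP using a standard curve after 30 min peptide exposure at 37° C.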

hGCGR = molecular target: T4, hGCGR (Homo sapiens, UniProt P47871); test: Functional cAMP formation (HTRF) in HEK-293 clonal cells expressing hGCGR, 0.1% bovine casein, without or with 1.0% human serum albumin; type: cell-based; conditions: geometric mean
T4 construct: expressed in transfected cells
Summary of the method: as §1

hGLP-1R = hGLP-1R (Homo sapiens, UniProt P43220); test: Functional cAMP formation (HTRF) in HEK-293 clonal cells expressing hGLP-1R, 0.1% bovine casein, without or with 1.0% human serum albumin; type: cell-based; set-up: expressed in transfected cells; conditions: for EC50: geometric mean
Summary of the method: as §1

[3] = human GcgR, geometric mean (SEM, n), read-out: Binding Affinity Ki, nM (SEM, n) hGCGR
[4] = human GLP-1R, geometric mean (SEM, n), read-out: Binding Affinity Ki, nM (SEM, n) hGLP-1R
[5] = 0.1% bovine casein and 1.0% human serum albumin, 37° C., read-out: hGIPR EC50, nM (SEM, n)
[6] = HEK293, 0.1% bovine casein and 1.0% human serum albumin, 37° C., percent of maximal response to GIP(1-42)NH2, read-out: hGIPR Emax, % ± SEM
[7] = cAMP, incubated at 37° C., 0.1% bovine casein (no human serum albumin), read-out: hGIPR EC50, nM (SEM, n)
[8] = 0.1% bovine casein and 1.0% human serum albumin, 37° C., read-out: hGCGR EC50, nM (SEM, n)
[9] = cAMP, incubated at 37° C., 0.1% bovine casein (no human serum albumin), read-out: hGCGR EC50, nM (SEM, n)
[10] = 0.1% bovine casein and 1.0% human serum albumin, 37° C., read-out: hGLP-1R EC50, nM (SEM, n)
[11] = HEK293, 0.1% bovine casein and 1.0% human serum albumin, 37° C., percent of maximal response to GLP-1(7-36)NH2, read-out: hGLP-1R Emax, % ± SEM
[12] = HEK293, percent of maximal response to GLP-1(7-36)NH2, 37° C., 0.1% bovine casein, arithmetic mean, read-out: hGLP-1R Emax, % ± SEM

T4 sequence (P47871 26-477): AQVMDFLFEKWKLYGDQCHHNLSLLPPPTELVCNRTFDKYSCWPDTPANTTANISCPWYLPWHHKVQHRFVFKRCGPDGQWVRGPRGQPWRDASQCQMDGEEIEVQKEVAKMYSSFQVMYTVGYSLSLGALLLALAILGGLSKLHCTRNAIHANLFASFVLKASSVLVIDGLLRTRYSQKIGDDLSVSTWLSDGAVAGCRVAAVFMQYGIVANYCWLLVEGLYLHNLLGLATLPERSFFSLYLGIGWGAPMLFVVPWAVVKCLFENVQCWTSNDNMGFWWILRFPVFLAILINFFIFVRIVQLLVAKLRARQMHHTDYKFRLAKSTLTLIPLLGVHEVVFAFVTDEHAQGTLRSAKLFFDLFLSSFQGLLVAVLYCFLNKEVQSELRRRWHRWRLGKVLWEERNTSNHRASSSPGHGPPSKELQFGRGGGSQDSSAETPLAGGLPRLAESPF
T1 sequence (P47871 26-477): as above
Sequence of hGLP-1R (P43220 24-463): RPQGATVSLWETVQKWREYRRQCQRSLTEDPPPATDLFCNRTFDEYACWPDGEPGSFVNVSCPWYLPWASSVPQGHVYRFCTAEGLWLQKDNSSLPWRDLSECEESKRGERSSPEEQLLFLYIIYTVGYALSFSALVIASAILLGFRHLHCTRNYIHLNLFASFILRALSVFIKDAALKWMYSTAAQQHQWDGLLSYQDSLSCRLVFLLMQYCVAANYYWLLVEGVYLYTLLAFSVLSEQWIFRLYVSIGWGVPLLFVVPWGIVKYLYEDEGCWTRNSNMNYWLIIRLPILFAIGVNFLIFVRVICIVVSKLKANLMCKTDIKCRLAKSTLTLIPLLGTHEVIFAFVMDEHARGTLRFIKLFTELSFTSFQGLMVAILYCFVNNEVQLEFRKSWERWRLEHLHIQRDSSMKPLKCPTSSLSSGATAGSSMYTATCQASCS

## CC[C@H](C)[C@H](NC(=O)[C@H](CC(C)C)NC(=O)[C@](C)(Cc1ccc(O)cc1)NC(=O)[C@@H](CCC(=O)O)NC(=O)[C@@H](NC(=O)[C@H](Cc1ccccc1)NC(=O)[C@H](CCC(=O)O)NC(=O)C(C)(C)NC(=O)[C@H](CCC(N)=O)NC(=O)[C@H](C)NC(=O)[C@H](CCCCNC(=O)COCCOCCNC(=O)COCCOCCNC(=O)CC[C@H](NC(=O)CCCCCCCCCCCCC(=O)O)C(=O)O)NC(=O)[C@H](CCCN)NC(=O)[C@H](CC(=O)O)NC(=O)[C@H](CC(C)C)NC(=O)[C@](C)(CC(C)C)NC(=O)[C@@H](NC(=O)[C@H](CO)NC(=O)[C@H](Cc1ccncc1)NC(=O)[C@H](CC(=O)O)NC(=O)[C@H](CO)NC(=O)[C@@H](NC(=O)[C@](C)(Cc1ccccc1F)NC(=O)[C@@H](NC(=O)CNC(=O)[C@H](CCC(=O)O)NC(=O)C(C)(C)NC(=O)[C@@H](N)Cc1ccc(O)cc1)[C@@H](C)O)[C@@H](C)O)[C@@H](C)CC)[C@@H](C)CC)C(=O)N[C@@H](CCC(=O)O)C(=O)NCC(=O)NCC(=O)N[C@@H](CCCCNC(=O)COCCOCCNC(=O)COCCOCCNC(=O)CC[C@H](NC(=O)CCCCCCCCCCCCC(=O)O)C(=O)O)C(=O)N[C@@H](CO)C(=O)N[C@@H](CO)C(=O)NCC(=O)N[C@@H](C)C(=O)N1CCC[C@H]1C(=O)N1CCC[C@H]1C(=O)N1CCC[C@H]1C(=O)N[C@@H](CO)C(N)=O [Example 1]
[1]; [3]
  Ki: > 969 nM
[2]; [4]
  Ki: 2.33 nM
hGIPR; [5]
  EC50: 0.696 nM
hGIPR; [6]
  Emax: 87.5 ± 3.24%
hGIPR; HEK293, percent of maximal response to GIP(1-42)NH2, 37° C., 0.1% bovine casein, arithmetic mean, read-out: hGIPR Emax, % ± SEM
  Emax: 90.2 ± 2.82%
hGIPR; [7]
  EC50: 0.0145 nM
hGCGR; [8]
  EC50: > 9950 nM
hGCGR; [9]
  EC50: > 9950 nM
hGLP-1R; [10]
  EC50: 30.7 nM
hGLP-1R; [11]
  Emax: 94.3 ± 4.39%
hGLP-1R; [12]
  Emax: 97 ± 4.47%

## CC[C@H](C)[C@H](NC(=O)[C@H](CC(C)C)NC(=O)[C@](C)(Cc1ccc(O)cc1)NC(=O)[C@@H](CCC(=O)O)NC(=O)[C@@H](NC(=O)[C@H](Cc1ccccc1)NC(=O)[C@H](CCC(=O)O)NC(=O)C(C)(C)NC(=O)[C@H](CCC(N)=O)NC(=O)[C@H](C)NC(=O)[C@H](CCCCNC(=O)COCCOCCNC(=O)COCCOCCNC(=O)CC[C@H](NC(=O)CCCCCCCCCOc1ccc(C(=O)O)cc1)C(=O)O)NC(=O)[C@H](CCCN)NC(=O)[C@H](CC(=O)O)NC(=O)[C@H](CC(C)C)NC(=O)[C@](C)(CC(C)C)NC(=O)[C@@H](NC(=O)[C@H](CO)NC(=O)[C@H](Cc1ccncc1)NC(=O)[C@H](CC(=O)O)NC(=O)[C@H](CO)NC(=O)[C@@H](NC(=O)[C@](C)(Cc1ccccc1F)NC(=O)[C@@H](NC(=O)CNC(=O)[C@H](CCC(=O)O)NC(=O)C(C)(C)NC(=O)[C@@H](N)Cc1ccc(O)cc1)[C@@H](C)O)[C@@H](C)O)[C@@H](C)CC)[C@@H](C)CC)C(=O)N[C@@H](CCC(=O)O)C(=O)NCC(=O)NCC(=O)N[C@@H](CCCCNC(=O)COCCOCCNC(=O)COCCOCCNC(=O)CC[C@H](NC(=O)CCCCCCCCCOc1ccc(C(=O)O)cc1)C(=O)O)C(=O)N[C@@H](CO)C(=O)N[C@@H](CO)C(=O)NCC(=O)N[C@@H](C)C(=O)N1CCC[C@H]1C(=O)N1CCC[C@H]1C(=O)N1CCC[C@H]1C(=O)N[C@@H](CO)C(N)=O [Example 2]
[1]
  Ki: > 958 nM
[2]
  Ki: 1.04 nM
hGIPR; HEK293, read-out: hGIPR Emax, % ± SEM, 0.1% bovine casein and 1.0% human serum albumin, 37° C., percent of maximal response to GIP(1-42)NH2
  Emax: 87.8 ± 5.11%
hGIPR; HEK293, read-out: hGIPR Emax, % ± SEM, percent of maximal response to GIP(1-42)NH2, 37° C., 0.1% bovine casein, arithmetic mean
  Emax: 93 ± 0.813%
hGIPR; hGIPR EC50, nM (SEM, n), 0.1% bovine casein and 1.0% human serum albumin, 37° C.
  EC50: 0.659 nM
hGIPR; hGIPR EC50, nM (SEM, n), cAMP, incubated at 37° C., 0.1% bovine casein (no human serum albumin)
  EC50: 0.0154 nM
hGCGR; hGCGR EC50, nM (SEM, n), 0.1% bovine casein and 1.0% human serum albumin, 37° C.
  EC50: > 9950 nM
hGCGR; hGCGR EC50, nM (SEM, n), cAMP, incubated at 37° C., 0.1% bovine casein (no human serum albumin)
  EC50: > 9950 nM
hGLP-1R; HEK293, read-out: hGLP-1R Emax, % ± SEM, percent of maximal response to GLP-1(7-36)NH2, 37° C., 0.1% bovine casein, arithmetic mean
  Emax: 93.1 ± 5.83%
hGLP-1R; hGLP-1R EC50, nM (SEM, n), 0.1% bovine casein and 1.0% human serum albumin, 37° C.
  EC50: 32.1 nM
hGLP-1R; hGLP-1R EC50, nM (SEM, n), cAMP, incubated at 37° C., 0.1% bovine casein (no human serum albumin)
  EC50: 1.14 nM

## CC[C@H](C)[C@H](NC(=O)[C@H](CC(C)C)NC(=O)[C@](C)(Cc1ccc(O)cc1)NC(=O)[C@@H](CCC(=O)O)NC(=O)[C@@H](NC(=O)[C@H](Cc1ccccc1)NC(=O)[C@H](CCC(=O)O)NC(=O)C(C)(C)NC(=O)[C@H](CCC(N)=O)NC(=O)[C@H](C)NC(=O)[C@H](CCCCNC(=O)COCCOCCNC(=O)COCCOCCNC(=O)COCCOCCNC(=O)CC[C@H](NC(=O)CCCCCCCCCCCCC(=O)O)C(=O)O)NC(=O)[C@H](CCCN)NC(=O)[C@H](CC(=O)O)NC(=O)[C@H](CC(C)C)NC(=O)[C@](C)(CC(C)C)NC(=O)[C@@H](NC(=O)[C@H](CO)NC(=O)[C@H](Cc1ccncc1)NC(=O)[C@H](CC(=O)O)NC(=O)[C@H](CO)NC(=O)[C@@H](NC(=O)[C@](C)(Cc1ccccc1F)NC(=O)[C@@H](NC(=O)CNC(=O)[C@H](CCC(=O)O)NC(=O)C(C)(C)NC(=O)[C@@H](N)Cc1ccc(O)cc1)[C@@H](C)O)[C@@H](C)O)[C@@H](C)CC)[C@@H](C)CC)C(=O)N[C@@H](CCC(=O)O)C(=O)NCC(=O)NCC(=O)N[C@@H](CCCCNC(=O)COCCOCCNC(=O)COCCOCCNC(=O)COCCOCCNC(=O)CC[C@H](NC(=O)CCCCCCCCCCCCC(=O)O)C(=O)O)C(=O)N[C@@H](CO)C(=O)N[C@@H](CO)C(=O)NCC(=O)N[C@@H](C)C(=O)N1CCC[C@H]1C(=O)N1CCC[C@H]1C(=O)N1CCC[C@H]1C(=O)N[C@@H](CO)C(N)=O [Example 30]
[1]; [3]
  Ki: > 966 nM
[2]; [4]
  Ki: 2.66 nM
hGIPR; [5]
  EC50: 0.337 nM
hGIPR; [7]
  EC50: 0.0175 nM
hGCGR; [8]
  EC50: > 9950 nM
hGCGR; [9]
  EC50: > 9950 nM
hGLP-1R; [10]
  EC50: 18.3 nM
hGLP-1R; [11]
  Emax: 96.5 ± 0.219%
hGLP-1R; [12]
  Emax: 97.8 ± 10.7%

## CC[C@H](C)[C@H](NC(=O)[C@H](CC(C)C)NC(=O)[C@](C)(Cc1ccc(O)cc1)NC(=O)[C@@H](CCC(=O)O)NC(=O)[C@@H](NC(=O)[C@H](Cc1ccccc1)NC(=O)[C@H](CCC(=O)O)NC(=O)C(C)(C)NC(=O)[C@H](CCC(N)=O)NC(=O)[C@H](C)NC(=O)[C@H](CCCCNC(=O)COCCOCCNC(=O)COCCOCCNC(=O)CC[C@H](NC(=O)CCCCCCCCCCCCC(=O)O)C(=O)O)NC(=O)[C@H](CCCN)NC(=O)[C@H](CC(=O)O)NC(=O)[C@H](CC(C)C)NC(=O)[C@](C)(CC(C)C)NC(=O)[C@@H](NC(=O)[C@H](CO)NC(=O)[C@@](C)(NC(=O)[C@H](CC(=O)O)NC(=O)[C@H](CO)NC(=O)[C@@H](NC(=O)[C@](C)(Cc1ccccc1F)NC(=O)[C@@H](NC(=O)CNC(=O)[C@H](CCC(=O)O)NC(=O)C(C)(C)NC(=O)[C@@H](N)Cc1ccc(O)cc1)[C@@H](C)O)[C@@H](C)O)C(C)C)[C@@H](C)CC)[C@@H](C)CC)C(=O)N[C@@H](CCC(=O)O)C(=O)NCC(=O)NCC(=O)N[C@@H](CCCCNC(=O)COCCOCCNC(=O)COCCOCCNC(=O)CC[C@H](NC(=O)CCCCCCCCCCCCC(=O)O)C(=O)O)C(=O)N[C@@H](CO)C(=O)N[C@@H](CO)C(=O)NCC(=O)N[C@@H](C)C(=O)N1CCC[C@H]1C(=O)N1CCC[C@H]1C(=O)N1CCC[C@H]1C(=O)N[C@@H](CO)C(N)=O [Example 52]
[1]; [3]
  Ki: > 966 nM
[2]; [4]
  Ki: 1.16 nM
hGIPR; [6]
  Emax: 87.6%
hGCGR; [8]
  EC50: > 9950 nM
hGCGR; [9]
  EC50: > 9950 nM
hGLP-1R; cAMP, incubated at 37° C., 0.1% bovine casein (no human serum albumin), read-out: hGLP-1R EC50, nM (SEM, n)
  EC50: 0.384 nM
